Data as given in paper PMC7238232, “Acamprosate Is a Substrate of the Human Organic Anion Transporter (OAT) 1 without OAT3 Inhibitory Properties: Implications for Renal Acamprosate Secretion and Drug–Drug Interactions” (Pharmaceutics, 2020).

Assays:
HEK293-Flp-In OAT3 cells = assay: CellTiter-Glo cell viability assay, OAT3 transfected cells; conditions: up to 3300 µM acamprosate; 3 h
[1] = Physicochemical properties; conditions: assay pH 7.4
OAT3 = target: T1, OAT3 (Homo sapiens, UniProt Q8TCC7); assay: Acamprosate intracellular uptake in HEK293-Flp-In OAT3 cells (LC/MS-MS); assay type: cell-based; conditions: 200 µM acamprosate; 10 min; Lab. 1
T1 sequence (Q8TCC7 1-542): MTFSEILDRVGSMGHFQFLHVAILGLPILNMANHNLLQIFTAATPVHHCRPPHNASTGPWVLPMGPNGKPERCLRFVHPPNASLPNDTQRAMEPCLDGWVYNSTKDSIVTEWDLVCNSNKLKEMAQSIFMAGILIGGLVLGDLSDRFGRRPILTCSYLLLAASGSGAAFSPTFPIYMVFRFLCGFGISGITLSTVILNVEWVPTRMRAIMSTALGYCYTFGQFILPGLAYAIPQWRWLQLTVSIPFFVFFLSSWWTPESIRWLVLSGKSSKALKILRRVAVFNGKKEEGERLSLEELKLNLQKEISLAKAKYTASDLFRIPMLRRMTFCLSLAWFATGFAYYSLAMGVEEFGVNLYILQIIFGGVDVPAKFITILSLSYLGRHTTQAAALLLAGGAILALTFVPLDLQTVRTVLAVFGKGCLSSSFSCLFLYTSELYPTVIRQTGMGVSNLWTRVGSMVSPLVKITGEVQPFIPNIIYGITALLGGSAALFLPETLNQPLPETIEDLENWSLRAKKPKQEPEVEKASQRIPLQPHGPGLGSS
Protocol: The experiments were done on cells cultured in 24-well plates in Lab. 1. For the time-dependent uptake, the experiment was initiated by replacing the incubation buffer with 200 µL prewarmed 200 µM solution of acamprosate in uptake buffer. The plates were incubated in an orbital plate shaker at 37 °C and 100 rpm for 5, 15, 30, 45, 60, or 90 min and experiments were stopped by washing with 3 × 500 µL ice-cold buffer. […] The plates were incubated in an orbital plate shaker (Incubating microplate shaker from VWR International AB, Stockholm, Sweden) at 37 °C and 100 rpm for 10 min (time point at which substrate uptake was within the linear range) and experiments were stopped by washing with 3 × 500 µL∙well^−1 ice-cold buffer. The cells were then lysed with 200 µL 50 nM warfarin in 60:40 acetonitrile (ACN):water (IS solution) and mixed thoroughly. The samples were moved to 96-well LC/MS-MS plates. The wells from the uptake experiment were rinsed again with 200 µL IS solution and the resulting volumes were added to the corresponding well on the same 96-well plate. […] The plates were covered with aluminum seals and centrifuged at 3500 rpm and 5 °C for 20 min and the amount of acamprosate in the supernatant was quantified by LC/MS-MS.
Acamprosate was quantified in Lab. […] Quantification was done by multiple reaction monitoring of parent and daughter ions. […]

CC(=O)NCCCS(=O)(=O)O [acamprosate, acetylhomotaurinate]
decrease in cell viability (HEK293-Flp-In OAT3 cells): ≤ 10% | ionized at the assay pH [1]: > 99% | acamprosate uptake in OAT3 expressing cells compared to mock cells (OAT3): similar
